Data from patent publication US4239903A, “2-Aminotetralin derivatives and process for producing the same” (priority 1977, dated 1980).
Where a name gives a salt, the structure may show the parent alone. Read-outs that look alike come from different tables or passages of the source.

Key:
[1] = test system: colonic contraction caused by stimulation of pelvic nerve; assay: Effect on colonic contraction caused by stimulation of pelvic nerve in anesthetized dogs; type: in vivo, dog (mongrel dogs of both sexes); conditions: Canis lupus familiaris, iv; for inhibition in vivo at 0.1 mg/kg: read-out: % Inhibition of Colonic Contraction; for ED50: read-out: c.ID50 (dose causing 50% inhibition of the colonic contraction by pelvic nerve stimulation)
Text: The compounds of the present invention are extremely useful as medicines particularly acting on the lower digestive tract. […] N-Ethyl-N-[4-(3,4-dimethoxybenzoyloxy)butyl]-3-(4-methoxyphenyl)-2-propylamine hydrochloride (hereinafter referred to as "mebeverine") known as an antispasmodic for the lower digestive tract was used as a reference.
The values shown in Table 1 were obtained according to the following method [as disclosed in European Journal of Pharmacology, 18, pp. 1-14 (1972)].
Mongrel dogs of both sexes weighing 8-15 kg were used.
After intravenous anesthesizing with pentobarbital in a dose of 30 mg/kg, the animals were fixed on their back and subjected to ventrotomy along the midline of the lower abdomen. After a rubber balloon filled with water was inserted into the descending colon via the anus, 100 μg/kg of each compound was injected intravenously and changes in the internal pressure of the balloon were recorded on a polygraph through a low pressure transducer. Electric stimulation (rectangular wave, 50 cps in frequency, 1 msec in duration, 4 V in voltage) was applied to the pelvic nerve for 5 seconds every three minutes. The percent inhibition of the colonic contraction was calculated according to the following relationship. [formula]
c.ID50 values were determined by the same method as was used for Table 1.

[2] = Effect on colonic motility stimulated by neostigmine in rats; type: in vivo, rat (male STD Wistar strain); conditions: rat, in vivo
[3] = test system: colonic motility stimulated by neostigmine; assay: as above; type: in vivo, rat (male STD Wistar strain); conditions: Rattus norvegicus, neostigmine-stimulated, dose at which inhibition was observed in 50% of rats
[4] = Acute toxicity (LD50) in rats; conditions: rat, in vivo
[5] = test system: contractile response of the stomach to vagal stimulation; assay: Contractile response of the stomach to vagal stimulation in anesthetized dogs; type: in vivo, dog (mongrel dogs of both sexes); conditions: for ED50: Canis lupus familiaris, iv, read-out: s.ID50 (dose causing 50% inhibition of the contractile response of the stomach to vagal stimulation); for s.ID50 /c.ID50 (selectivity of antispasmodic effect): i.v., stomach vs colon
Text: The compounds of the present invention are further characterized by the following property. The compounds of the present invention have selectively stronger antispasmodic effect on the lower part of the digestive tract than on the upper part of the digestive tract, in contrast to conventional anticholinergic antispasmodics which act non-selectively on the digestive tract. The evidence for this selectivity is exemplified by the results shown for representative compounds of the present invention in Table 3. In Table 3, the s.ID50 and c.ID50 values represent the doses causing 50% inhibition of the contractile response of the stomach to vagal stimulation and 50% inhibition of the colonic contraction by pelvic nerve stimulation, respectively, in dogs. These values and their ratios (s.ID50 /c.ID50) indicate that these compounds have higher selectivity than mebeverine, as is clear from Table 3.
The determination of gastric motility was carried out according to the method described in European Journal of Pharmacology, 18, pp. 1-14 (1972).
More specifically mongrel dogs of both sexes weighing 8-15 kg were used. After anesthesizing the animals with 30 mg/kg (i.v.) of pentobarbital, the animals were fixed on their back and a midline incision was made in the upper abdomen. A rubber balloon filled with water was inserted into the stomach through an incision in the greater curvature. Changes in internal pressure of the balloon were recorded on a polygraph via a low pressure transducer. Electric stimulation (rectangular wave, 20 cps in frequency, 1 msec in duration, 8 V in voltage) was applied to the vagus nerve for 10 seconds every three minutes. The percent inhibition of the contractile response of the stomach was calculated from the relationship shown above.

[6] = 100 μg/kg, i.v., pelvic nerve stimulation, anesthetized dogs

Compound | inhibition in vivo at 0.1 mg/kg [1, 6] [%] | safety margin (LD50/ED50) ([2]; iv) | safety margin (LD50/ED50) ([2]; po) | ED50 ([3]; iv) [mg/kg] | ED50 ([3]; po) [mg/kg] | LD50 ([4]; iv) [mg/kg] | LD50 ([4]; po) [mg/kg] | ED50 ([5]; dogs) [mg/kg] | s.ID50 /c.ID50 (selectivity of antispasmodic effect) ([5]; dogs) | ED50 ([1]; dogs) [mg/kg] | ED50 [5] [mg/kg] | inhibition in vivo at 0.1 mg/kg [1] [%] | ED50 [1] [mg/kg]
CCN(CCCCOC(=O)c1ccc(OC)c(OC)c1)C1CCc2ccccc2C1 (stereo not drawn) [Compound A, N-Ethyl-N-[4-(3,4-dimethoxybenzoyloxy)butyl]-1,2,3,4-tetrahydro-2-naphthylamine hydrochloride] | 27.9 | – | – | – | – | – | – | – | – | – | – | – | –
CCN(CCCCCCOC(=O)c1ccc(OC)c(OC)c1)C1CCc2ccccc2C1.Cl (stereo not drawn) [Compound B, N-Ethyl-N-[6-(3,4-dimethoxybenzoyloxy)hexyl]-1,2,3,4-tetrahydro-2-naphthylamine hydrochloride] | 56 | 206 | > 364 | 0.086 | 5.5 | 17.7 | > 2000 | – | – | – | – | – | –
CCN(CCCCOC(=O)c1ccc(OC)c(OC)c1)C1CCc2cc(OC)ccc2C1.Cl (stereo not drawn) [Compound C, N-Ethyl-N-[4-(3,4-dimethoxybenzoyloxy)butyl]-6-methoxy-1,2,3,4-tetrahydro-2-naphthylamine hydrochloride] | 20 | 114 | > 139 | 0.169 | 14.4 | 19.3 | > 2000 | – | – | – | – | – | –
CCN(CCCCCCOC(=O)c1ccc(OC)c(OC)c1)C1CCc2cc(OC)ccc2C1.Cl (stereo not drawn) [Compound D, N-Ethyl-N-[6-(3,4-dimethoxybenzoyloxy)hexyl]-6-methoxy-1,2,3,4-tetrahydro-2-naphthylamine hydrochloride] | 54.7 | 767 | 515 | 0.046 | 5.5 | 35.3 | 2830 | 0.614 | 7.40 | 0.083 | – | – | –
CCCN(CCCCOC(=O)c1ccc(OC)c(OC)c1)C1CCc2cc(OC)ccc2C1.Cl (stereo not drawn) [Compound E, N-Propyl-N-[4-(3,4-dimethoxybenzoyloxy)butyl]-6-methoxy-1,2,3,4-tetrahydro-2-naphthylamine hydrochloride] | 22.4 | 129 | 41 | 0.173 | 17.3 | 22.3 | 707 | – | – | – | – | – | –
CCN(CCCCOC(=O)c1ccc(OC)c(OC)c1)C1CCc2cc(OC)c(OC)cc2C1.Cl (stereo not drawn) [Compound F, N-Ethyl-N-[4-(3,4-dimethoxybenzoyloxy)butyl]-6,7-dimethoxy-1,2,3,4-tetrahydro-2-naphthylamine hydrochloride] | 63.8 | 648 | 280 | 0.025 | 5.5 | 16.2 | 1540 | 0.266 | 4.67 | 0.057 | – | – | –
CCN(CCCCCCOC(=O)c1ccc(OC)c(OC)c1)C1CCc2cc(OC)c(OC)cc2C1.Cl (stereo not drawn) [Compound G, N-Ethyl-N-[6-(3,4-dimethoxybenzoyloxy)hexyl]-6,7-dimethoxy-1,2,3,4-tetrahydro-2-naphthylamine hydrochloride] | 54.2 | 885 | 330 | 0.02 | 1.7 | 17.5 | 561 | – | – | – | – | – | –
CCN(CCCCOC(=O)c1ccc(OC)c(OC)c1)C1CCc2ccc(OC)cc2C1 (stereo not drawn) [Compound H, N-Ethyl-N-[4-(3,4-dimethoxybenzoyloxy)butyl]-7-methoxy-1,2,3,4-tetrahydro-2-naphthylamine hydrochloride] | 30.9 | – | – | – | – | – | – | – | – | – | – | – | –
CCN(CCCCOC(=O)c1ccc(OC)c(OC)c1)C1CCc2cccc(OC)c2C1 (stereo not drawn) [Compound K, N-Ethyl-N-[4-(3,4-dimethoxybenzoyloxy)butyl]-8-methoxy-1,2,3,4-tetrahydro-2-naphthylamine hydrochloride] | 40 | – | – | – | – | – | – | – | – | – | – | – | –
COc1ccc2c(c1)CCC(N(CCCCOC(=O)c1ccc(OC)c(OC)c1)C(C)C)C2.Cl (stereo not drawn) [Compound L, N-Isopropyl-N-[4-(3,4-dimethoxybenzoyloxy)butyl]-6-methoxy-1,2,3,4-tetrahydro-2-naphthylamine hydrochloride] | – | – | 89 | 0.173 | 17.3 | – | 1540 | – | – | – | – | – | –
CCN(CCCCOC(=O)c1ccc(OC)c(OC)c1)C(C)Cc1ccc(OC)cc1.Cl (stereo not drawn) [Mebeverine, N-Ethyl-N-[4-(3,4-dimethoxybenzoyloxy)butyl]-3-(4-methoxyphenyl)-2-propylamine hydrochloride, reference compound] | – | – | – | 0.151 | 30 | 17.7 | 1540 | – | < 2.74 | – | 0.823 | 22 | > 0.3
